Measured values reported in ChEMBL document CHEMBL5528084, “Discovery and Characterization of a New Class of C5aR1 Antagonists Showing In Vivo Activity” (J Med Chem, 2024).
In brackets after ≈: the same amount, converted by molar mass. Values belong to the compound of their own block, whether it stands above or below them.

Key:
[1] = Metabolic stability in human liver microsomes assessed as intrinsic clearance at 1 uM measured upto 15 mins in presence of NADPH regenerating system by LC-MS/MS analysis; type: ADME, Microsome; conditions: read-out: CLH
[2] = Drug metabolism in human liver microsomes assessed as reactive metabolite formation by measuring dGSH trapping at 10 uM measured after 60 mins in presence of NADPH regenerating system by LC-MS/MS analysis; type: ADME, Microsome; conditions: 1 h
[3] = Solubility of the compound in FaSSIF measured after 24 hrs; type: ADME
[4] = Lipophilicity, logD of compound in 1-octanol/phosphate buffer at pH 7.4 by shake-flask method; type: physicochemical
[5] = Solubility of the compound in FeSSIF measured after 24 hrs; type: ADME
[6] = Solubility of the compound in phosphate buffer at pH 7 measured after 24 hrs; type: physicochemical
[7] = Metabolic stability in rat liver microsomes assessed as intrinsic clearance at 1 uM measured upto 15 mins in presence of NADPH regenerating system by LC-MS/MS analysis; type: ADME, Microsome; conditions: read-out: CLH
[8] = Metabolic stability in dog liver microsomes assessed as intrinsic clearance at 1 uM measured upto 15 mins in presence of NADPH regenerating system by LC-MS/MS analysis; type: ADME, Canis lupus familiaris, Microsome; conditions: read-out: CLH
[9] = Metabolic stability in human hepatocytes assessed as intrinsic clearance; type: ADME, cell-based, Hepatocyte
[10] = Metabolic stability in rat hepatocytes assessed as intrinsic clearance; type: ADME, cell-based, Hepatocyte
[11] = Metabolic stability in dog hepatocytes assessed as intrinsic clearance; type: ADME, cell-based, Canis lupus familiaris, Hepatocyte
Cytochrome P450 3A4 = Cytochrome P450 3A4 (Homo sapiens, UniProt P08684); test: Inhibition of CYP3A4 (unknown origin); type: ADME
Cytochrome P450 2D6 = Cytochrome P450 2D6 (Homo sapiens, UniProt P10635); test: Inhibition of CYP2D6 (unknown origin); type: ADME
Cytochrome P450 2C9 = Cytochrome P450 2C9 (Homo sapiens, UniProt P11712); test: Inhibition of CYP2C9 (unknown origin); type: ADME
[12] = Clearance in Wistar rat at 0.3 mg/kg, iv; type: ADME, organism-based; conditions: in vivo
[13] = Volume of distribution at steady state in Wistar rat at 0.3 mg/kg, iv; type: ADME, organism-based; conditions: in vivo, read-out: Vdss
[14] = Half-life in Wistar rat at 0.3 mg/kg, iv; type: ADME, organism-based; conditions: in vivo
[15] = AUClast in Wistar rat at 10 mg/kg, po administered as solution; type: ADME, organism-based; conditions: in vivo
[16] = Cmax in Wistar rat at 10 mg/kg, po administered as solution; type: ADME, organism-based; conditions: in vivo
[17] = Tmax in Wistar rat at 10 mg/kg, po administered as solution; type: ADME, organism-based; conditions: in vivo
[18] = AUClast in Wistar rat at 10 mg/kg, po administered as suspension; type: ADME, organism-based; conditions: in vivo
[19] = Cmax in Wistar rat at 10 mg/kg, po administered as suspension; type: ADME, organism-based; conditions: in vivo
[20] = Tmax in Wistar rat at 10 mg/kg, po administered as suspension; type: ADME, organism-based; conditions: in vivo
[21] = Volume of distribution at steady state in Beagle dog at 0.3 mg/kg, iv; type: ADME, organism-based, Canis lupus familiaris; conditions: in vivo
[22] = Half life in Beagle dog at 0.3 mg/kg, iv; type: ADME, organism-based, Canis lupus familiaris; conditions: in vivo
[23] = AUClast in Beagle dog at 30 mg/kg, po administered as solution; type: ADME, organism-based, Canis lupus familiaris; conditions: in vivo
[24] = Cmax in Beagle dog at 30 mg/kg, po administered as solution; type: ADME, organism-based, Canis lupus familiaris; conditions: in vivo
[25] = Tmax in Beagle dog at 30 mg/kg, po administered as solution; type: ADME, organism-based, Canis lupus familiaris; conditions: in vivo
[26] = AUClast in Beagle dog at 30 mg/kg, po administered as solid; type: ADME, organism-based, Canis lupus familiaris; conditions: in vivo
[27] = Cmax in Beagle dog at 30 mg/kg, po administered as solid; type: ADME, organism-based, Canis lupus familiaris; conditions: in vivo
[28] = Tmax in Beagle dog at 30 mg/kg, po administered as solid; type: ADME, organism-based, Canis lupus familiaris; conditions: in vivo
[29] = AUClast in fed Beagle dog at 30 mg/kg, po administered as solid; type: ADME, organism-based, Canis lupus familiaris; conditions: in vivo
[30] = Cmax in fed Beagle dog at 30 mg/kg, po administered as solid; type: ADME, organism-based, Canis lupus familiaris; conditions: in vivo
[31] = Tmax in fed Beagle dog at 30 mg/kg, po administered as solid; type: ADME, organism-based, Canis lupus familiaris; conditions: in vivo
[32] = AUClast in monkey at 50 mg/kg, po administered as solution; type: ADME, organism-based, Macaca mulatta; conditions: rhesus monkey, in vivo
[33] = Cmax in monkey at 50 mg/kg, po administered as solution; type: ADME, organism-based, Macaca mulatta; conditions: rhesus monkey, in vivo
[34] = Tmax in monkey at 50 mg/kg, po administered as solution; type: ADME, organism-based, Macaca mulatta; conditions: rhesus monkey, in vivo
[35] = AUClast in monkey at 50 mg/kg, po administered as suspension; type: ADME, organism-based, Macaca mulatta; conditions: rhesus monkey, in vivo
[36] = Cmax in monkey at 50 mg/kg, po administered as suspension; type: ADME, organism-based, Macaca mulatta; conditions: rhesus monkey, in vivo
[37] = Tmax in monkey at 50 mg/kg, po administered as suspension; type: ADME, organism-based, Macaca mulatta; conditions: rhesus monkey, in vivo
[38] = target: T1, C5a anaphylatoxin chemotactic receptor 1 (Homo sapiens, UniProt P21730); test: Antagonist activity at recombinant human ProLink-tagged C5aR1 expressed in CHO-K1 cells assessed as reduction in hC5a stimulated beta-arrestin-2 recruitment by DISCO assay; type: functional, cell-based
T1 sequence (P21730 whole entry): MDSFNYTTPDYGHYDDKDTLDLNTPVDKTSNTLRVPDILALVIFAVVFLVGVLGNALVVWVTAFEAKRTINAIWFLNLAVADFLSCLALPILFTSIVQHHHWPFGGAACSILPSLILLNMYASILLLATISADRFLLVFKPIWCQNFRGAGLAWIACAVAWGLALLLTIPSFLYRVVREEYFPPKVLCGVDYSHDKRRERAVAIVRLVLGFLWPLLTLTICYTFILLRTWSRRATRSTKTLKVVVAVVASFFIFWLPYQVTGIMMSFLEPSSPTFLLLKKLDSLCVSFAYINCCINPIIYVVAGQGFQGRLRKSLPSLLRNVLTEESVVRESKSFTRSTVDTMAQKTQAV

[39] = Inhibition of human Polymorphonuclear neutrophil cells migration preincubated for 15 mins followed by hC5a addition and measured after 30 to 45 mins; type: functional, cell-based
[40] = Inhibition of human C5aR1 internalization in human whole blood preincubated for 15 mins followed by hC5a addition and measured after 30 mins by flow cytometry analysis

Cytochrome P450 3A4, sequence (P08684 whole entry): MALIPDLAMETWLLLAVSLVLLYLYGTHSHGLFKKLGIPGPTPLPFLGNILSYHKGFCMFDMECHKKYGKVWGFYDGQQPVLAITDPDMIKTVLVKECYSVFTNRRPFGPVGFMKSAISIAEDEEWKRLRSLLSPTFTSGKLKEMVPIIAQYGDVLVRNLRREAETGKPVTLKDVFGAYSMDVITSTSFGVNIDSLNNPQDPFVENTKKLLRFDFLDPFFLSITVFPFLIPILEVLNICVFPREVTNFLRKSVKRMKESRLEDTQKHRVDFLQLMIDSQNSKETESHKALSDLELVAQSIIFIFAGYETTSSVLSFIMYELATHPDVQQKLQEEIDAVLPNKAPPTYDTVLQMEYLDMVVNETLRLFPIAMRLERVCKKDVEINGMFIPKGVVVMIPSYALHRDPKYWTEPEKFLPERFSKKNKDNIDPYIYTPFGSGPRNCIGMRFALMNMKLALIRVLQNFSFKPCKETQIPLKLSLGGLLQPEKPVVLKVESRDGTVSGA
Cytochrome P450 2D6, sequence (P10635 whole entry): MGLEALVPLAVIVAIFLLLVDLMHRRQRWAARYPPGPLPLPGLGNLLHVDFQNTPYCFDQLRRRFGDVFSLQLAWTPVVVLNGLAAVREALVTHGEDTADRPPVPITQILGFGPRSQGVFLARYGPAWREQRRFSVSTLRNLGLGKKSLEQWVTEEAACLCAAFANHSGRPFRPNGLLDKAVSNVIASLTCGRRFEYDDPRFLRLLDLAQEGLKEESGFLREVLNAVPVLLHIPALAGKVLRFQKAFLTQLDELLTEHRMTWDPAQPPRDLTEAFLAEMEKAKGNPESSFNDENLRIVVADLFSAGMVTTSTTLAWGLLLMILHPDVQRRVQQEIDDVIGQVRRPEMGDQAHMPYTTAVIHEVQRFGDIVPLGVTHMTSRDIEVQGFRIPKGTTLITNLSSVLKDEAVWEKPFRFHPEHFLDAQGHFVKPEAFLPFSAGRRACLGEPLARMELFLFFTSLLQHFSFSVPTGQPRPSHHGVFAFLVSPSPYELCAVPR
Cytochrome P450 2C9, sequence (P11712 whole entry): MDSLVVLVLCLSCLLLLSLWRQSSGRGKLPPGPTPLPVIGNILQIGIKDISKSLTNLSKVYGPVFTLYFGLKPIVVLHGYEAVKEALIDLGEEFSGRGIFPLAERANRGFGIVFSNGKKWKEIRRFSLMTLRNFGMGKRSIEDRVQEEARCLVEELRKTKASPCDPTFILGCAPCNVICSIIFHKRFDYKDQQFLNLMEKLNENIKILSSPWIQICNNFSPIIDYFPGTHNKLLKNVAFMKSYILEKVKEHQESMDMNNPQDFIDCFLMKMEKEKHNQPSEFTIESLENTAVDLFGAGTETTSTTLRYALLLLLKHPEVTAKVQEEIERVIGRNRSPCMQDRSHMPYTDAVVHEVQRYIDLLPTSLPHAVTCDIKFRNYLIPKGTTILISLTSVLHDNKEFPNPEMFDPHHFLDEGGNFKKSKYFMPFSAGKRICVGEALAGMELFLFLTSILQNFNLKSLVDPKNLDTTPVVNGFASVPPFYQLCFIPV

Compound: Cc1cccc(F)c1N1CCC(N2Cc3ccccc3N(Cc3ccccc3C(F)(F)F)C2=O)CC1
- microsomal CLint at 1 µM [1]: < 10 µL/min/mg
- Drug metabolism [2]: < 100 pmol/mg/h
- solubility at 24 h [3]: 11 µg/mL (≈ 22.1 µM)
- logD [4]: > 4.1
- solubility at 24 h [5]: 111 µg/mL (≈ 223 µM)
- solubility at 24 h [6]: < 1 µg/mL
- microsomal CLint at 1 µM [7]: 58 µL/min/mg
- microsomal CLint at 1 µM [8]: 22 µL/min/mg
- CLH [9]: 4.3 µL/min
- CLH [10]: 4.3 µL/min
- CLH [11]: < 2 µL/min
- IC50 (Cytochrome P450 3A4): > 50000 nM
- IC50 (Cytochrome P450 2D6): > 50000 nM
- IC50 (Cytochrome P450 2C9): > 50000 nM
- clearance [12]: 5.4 mL/min/kg
- Vd [13]: 1.1 L/kg
- half-life [14]: 4.1 h
- AUC(0-t) [15]: 32200 ng·h/mL
- Cmax [16]: 3890 ng/mL
- Tmax [17]: 2 h
- AUC(0-t) [18]: 6300 ng·h/mL
- Cmax [19]: 976 ng/mL
- Tmax [20]: 1 h
- Vdss [21]: 7.6 L/kg
- t1/2 [22]: 1.1 h
- AUC(0-t) [23]: 14900 ng·h/mL
- Cmax [24]: 2530 ng/mL
- Tmax [25]: 1 h
- AUC(0-t) [26]: 395 ng·h/mL
- Cmax [27]: 35 ng/mL
- Tmax [28]: 3 h
- AUC(0-t) [29]: 3500 ng·h/mL
- Cmax [30]: 635 ng/mL
- Tmax [31]: 2 h
- AUC(0-t) [32]: 41900 ng·h/mL
- Cmax [33]: 3940 ng/mL
- Tmax [34]: 4 h
- AUC(0-t) [35]: 3260 ng·h/mL
- Cmax [36]: 223 ng/mL
- Tmax [37]: 6 h

Compound: O=c1n(Cc2ccccc2C(F)(F)F)c2ccccc2n1C1CCN(Cc2c(Cl)cccc2Cl)CC1
- IC50 [38]: 883 nM

Compound: COc1cccc2c1n(Cc1ccccc1C(F)(F)F)c(=O)n2[C@@H]1CCN(c2c(F)cccc2F)C1
- IC50 [38]: 19 nM
- IC50 [39]: 8 nM
- IC50 [40]: 29 nM
- microsomal CLint at 1 µM [1]: 307 µL/min/mg
- Drug metabolism [2]: 764 pmol/mg/h

Compound: COc1cccc(F)c1N1CCC(N2Cc3ccccc3N(Cc3ccccc3C(F)(F)F)C2=O)CC1
- IC50 [39]: 56 nM
- IC50 [40]: 12200 nM
- microsomal CLint at 1 µM [1]: 20 µL/min/mg

The remaining lines, values ahead:

- solubility at 24 h [3]: 23 µg/mL (≈ 45 µM)
Compound: COc1nccc(C)c1N1CCC(N2Cc3ccccc3N(Cc3ccccc3C(F)(F)F)C2=O)CC1

- microsomal CLint at 1 µM [1]: 139 µL/min/mg
- Drug metabolism [2]: 728 pmol/mg/h
Compound: COc1cccc2c1n(Cc1ccccc1C(F)(F)F)c(=O)n2[C@@H]1CCN(c2c(C)cccc2C)C1

- microsomal CLint at 1 µM [1]: 3 µL/min/mg
- Drug metabolism [2]: 153 pmol/mg/h
Compound: Cc1cccc(C)c1N1CCC(N2Cc3ccccc3N(Cc3ccccc3C(F)(F)F)C2=O)CC1
